In patent US7932262B2 (Novartis AG, priority 2006, dated 2011):
Where two headings read alike, the source gives them in different places.

Tests used:
[1] = system: PC-3 cells; experiment: Cell Proliferation Assay (Cell Titer Glo), PC-3 cell line; assay type: cell-based; details: Homo sapiens, read-out: CPEC50 PC3
Procedure, shortened: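 PC-3 cells, 1000 cells/well, left to adhere 3-5 h, then exposed for 3 days at 37° C to compounds as 1:3 serial dilutions from 500× DMSO stocks diluted in growth medium. Medium then replaced with fresh medium and viability read by Cell Titer Glo luminescence.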

[2] = molecular target: T1, PDK1 kinase (Homo sapiens, UniProt O15530); experiment: PDK1 Kinase Alpha Screen Assay; assay type: biochemical; details: read-out: PDK1 IC50
T1 sequence (O15530 1-556): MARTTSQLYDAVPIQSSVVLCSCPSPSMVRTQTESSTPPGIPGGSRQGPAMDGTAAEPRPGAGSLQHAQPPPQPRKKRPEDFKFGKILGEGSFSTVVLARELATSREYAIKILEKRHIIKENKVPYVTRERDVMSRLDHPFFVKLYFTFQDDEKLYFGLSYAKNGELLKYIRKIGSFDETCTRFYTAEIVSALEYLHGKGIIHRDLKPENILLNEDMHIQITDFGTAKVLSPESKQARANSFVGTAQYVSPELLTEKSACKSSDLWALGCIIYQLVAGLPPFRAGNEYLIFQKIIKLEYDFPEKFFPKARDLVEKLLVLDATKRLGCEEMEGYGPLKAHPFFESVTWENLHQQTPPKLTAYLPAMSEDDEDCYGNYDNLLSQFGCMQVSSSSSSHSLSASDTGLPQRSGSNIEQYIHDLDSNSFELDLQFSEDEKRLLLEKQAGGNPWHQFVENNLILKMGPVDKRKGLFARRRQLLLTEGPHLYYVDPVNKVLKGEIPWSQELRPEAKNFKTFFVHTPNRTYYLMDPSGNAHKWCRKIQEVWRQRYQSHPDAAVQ
Procedure, shortened: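 Test compounds were incubated with PDK1 kinase, 10 uM ATP and 50 nM biotinylated peptide substrate for 3-18 hours at pH 7.5 with 2.5% DMSO. Peptide phosphorylation was then detected by AlphaScreen proximity luminescence using a phospho-(Ser/Thr) PKA substrate antibody.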

[3] = PC-3, Cell Proliferation Assay, PC3
[4] = PC-3, Cell Proliferation Assay, PC3 cells

Row | EC50 [1, 3] | IC50 ([2]; PDK1 Kinase Alpha Screen Assay) | EC50 [1, 4] | EC50 ([1]; PC-3, PC3 cells) | IC50 [2] | Structure (SMILES)
1 | – | – | – | < 5 µM | < 5 µM | Nc1cc(C(F)(F)F)c(-c2cccc3cnc(Nc4ccc(S(N)(=O)=O)cc4)nc23)cn1 [Compound 930, 4-(8-(6-amino-4-(trifluoromethyl)pyridin-3-yl)quinazolin-2-ylamino)benzenesulfonamide]
2 | – | – | – | 5 to 10 µM | < 5 µM | Cn1cc(-c2cccc3cnc(Nc4ccc(S(N)(=O)=O)cc4)nc23)cn1 [Compound 931, 4-(8-(1-methyl-1H-pyrazol-4-yl)quinazolin-2-ylamino)benzenesulfonamide]
3 | – | – | – | 5 to 10 µM | < 5 µM | NS(=O)(=O)c1ccc(Nc2ncc3cccc(CNCCN4CCCC4)c3n2)cc1 [Compound 935, 4-(8-((2-(pyrrolidin-1-yl)ethylamino)methyl)quinazolin-2-ylamino)benzenesulfonamide]
4 | – | – | – | < 5 µM | < 5 µM | CN(C)[C@H]1CCN(Cc2cccc3cnc(Nc4ccc(S(N)(=O)=O)cc4)nc23)C1 [Compound 936, (S)-4-(8-((3-(dimethylamino)pyrrolidin-1-yl)methyl)quinazolin-2-ylamino)benzenesulfonamide]
5 | – | – | – | 5 to 10 µM | < 5 µM | CN1CCC(NCc2cccc3cnc(Nc4ccc(S(N)(=O)=O)cc4)nc23)CC1 [Compound 937, 4-(8-((1-methylpiperidin-4-ylamino)methyl)quinazolin-2-ylamino)benzenesulfonamide]
6 | – | – | – | 5 to 10 µM | < 5 µM | CN(C)[C@@H]1CCN(Cc2cccc3cnc(Nc4ccc(S(N)(=O)=O)cc4)nc23)C1 [Compound 938, (R)-4-(8-((3-(dimethylamino)pyrrolidin-1-yl)methyl)quinazolin-2-ylamino)benzenesulfonamide]
7 | – | – | – | < 5 µM | < 5 µM | Cc1ccc(-c2ccc3cnc(Nc4ccc(S(N)(=O)=O)cc4)nc3c2)c(F)n1 [Compound 939, 4-(7-(2-fluoro-6-methylpyridin-3-yl)quinazolin-2-ylamino)benzenesulfonamide]
8 | – | – | – | 5 to 10 µM | < 5 µM | CC(C)N1CCC(c2c(O)ccc3cnc(Nc4ccc(F)cc4)nc23)CC1 [Compound 940, 2-(4-fluorophenylamino)-8-(1-isopropylpiperidin-4-yl)quinazolin-7-ol]
9 | – | – | – | < 5 µM | < 5 µM | NS(=O)(=O)c1ccc(Nc2ncc3cccc(-c4cncc(CN5CCCC5)c4)c3n2)cc1 [Compound 941, 4-(8-(5-(pyrrolidin-1-ylmethyl)pyridin-3-yl)quinazolin-2-ylamino)benzenesulfonamide]
10 | – | – | – | < 5 µM | < 5 µM | NS(=O)(=O)c1ccc(Nc2ncc3cccc(-c4cncc(CN5CCOCC5)c4)c3n2)cc1 [Compound 942, 4-(8-(5-(morpholinomethyl)pyridin-3-yl)quinazolin-2-ylamino)benzenesulfonamide]
11 | – | – | – | < 5 µM | < 5 µM | CN1CCN(Cc2cncc(-c3cccc4cnc(Nc5ccc(S(N)(=O)=O)cc5)nc34)c2)CC1 [Compound 943, 4-(8-(5-((4-methylpiperazin-1-yl)methyl)pyridin-3-yl)quinazolin-2-ylamino)benzenesulfonamide]
12 | – | – | – | 5 to 10 µM | < 5 µM | NS(=O)(=O)c1ccc(Nc2ncc3cccc(-c4cncc(CN5CCNC(=O)C5)c4)c3n2)cc1 [Compound 944, 4-(8-(5-((3-oxopiperazin-1-yl)methyl)pyridin-3-yl)quinazolin-2-ylamino)benzenesulfonamide]

The remaining lines, values behind:

Row | Structure (SMILES) | EC50 [1, 3] | IC50 ([2]; PDK1 Kinase Alpha Screen Assay) | EC50 [1, 4] | EC50 ([1]; PC-3, PC3 cells) | IC50 [2]
13 | C#Cc1cc(OC2CCNCC2)c2nc(Nc3ccc(N4CCOCC4)cc3)ncc2c1 [Compound 700, 6-ethynyl-N-(4-morpholinophenyl)-8-(piperidin-4-yloxy)quinazolin-2-amine] | < 5 µM | < 5 µM | – | – | –
14 | N#Cc1cc(OC2CCNCC2)c2nc(Nc3ccc(N4CCOCC4)cc3)ncc2c1 [Compound 701, 2-(4-morpholinophenylamino)-8-(piperidin-4-yloxy)quinazoline-6-carbonitrile] | < 5 µM | < 5 µM | – | – | –
15 | c1csc(-c2cc(OC3CCNCC3)c3nc(Nc4ccc(N5CCOCC5)cc4)ncc3c2)n1 [Compound 702, N-(4-morpholinophenyl)-8-(piperidin-4-yloxy)-6-(thiazol-2-yl)quinazolin-2-amine] | < 5 µM | < 5 µM | – | – | –
16 | c1cc(N2CCOCC2)ccc1Nc1ncc2cc(C3CC3)cc(OC3CCNCC3)c2n1 [Compound 703, 6-cyclopropyl-N-(4-mropholinophenyl)-8-(piperidin-4-yloxy)quinazolin-2-amine] | < 5 µM | < 5 µM | – | – | –
17 | CC(C)N1CCC(Oc2cc(C3CC3)cc3cnc(Nc4ccc(N5CCOCC5)cc4)nc23)CC1 [Compound 704, 6-cyclopropyl-8-(1-isopropylpiperidin-4-yloxy)-N-(4-morpholinophenyl)quinazolin-2-amine] | < 5 µM | < 5 µM | – | – | –
18 | C#Cc1cc(OC2CCNCC2)c2nc(Nc3ccc(C(=O)N4CCOCC4)cc3)ncc2c1 [Compound 705, (4-(6-ethynyl-8-(piperidin-4-yloxy)quinazolin-2-ylamino)phenyl)(morpholino)methanone] | < 5 µM | < 5 µM | – | – | –
19 | c1csc(-c2cc(OC3CNC3)c3nc(Nc4ccc(N5CCOCC5)cc4)ncc3c2)n1 [Compound 706, 8-(azetidin-3-yloxy)-N-(4-morpholinophenyl)-6-(thiazol-2-yl)quinazolin-2-amine] | < 5 µM | < 5 µM | – | – | –
20 | C#Cc1cc(OC2CNC2)c2nc(Nc3ccc(N4CCOCC4)cc3)ncc2c1 [Compound 707, 8-(azetidin-3-yloxy)-6-ethynyl-N-(4-morpholinophenyl)quinazolin-2-amine] | – | < 5 µM | < 5 µM | – | –
21 | C#Cc1cc(OC2CCNCC2)c2nc(Nc3ccc(C(=O)N4CCOCC4)cc3)ncc2c1Cl [Compound 708, (4-(5-chloro-6-ethynyl-8-(piperidin-4-yloxy)quinazolin-2-ylamino)phenyl)(morpholino)methanone] | – | < 5 µM | < 5 µM | – | –
22 | CC(C)Cn1cc(-c2ccc3cnc(Nc4ccc(S(=O)(=O)NCCCN5CCCC5)cc4)nc3c2)cn1 [Compound 709, 4-(7-(1-isobutyl-1H-pyrazol-4-yl)quinazolin-2-ylamino)-N-(3-(pyrrolidin-1-yl)propyl)benzenesulfonamide] | – | < 5 µM | < 5 µM | – | –
23 | CC(C)Cn1cc(-c2ccc3cnc(Nc4ccc(S(=O)(=O)NCCN5CCOCC5)cc4)nc3c2)cn1 [Compound 710, 44-(7-(1-isobutyl-1H-pyrazol-4-yl)quinazolin-2-ylamino)-N-(2-morpholinoethyl)benzenesulfonamide] | – | < 5 µM | < 5 µM | – | –
24 | CC(C)Cn1cc(-c2ccc3cnc(Nc4ccc(S(=O)(=O)NCCN5CCCCC5)cc4)nc3c2)cn1 [Compound 711, 4-(7-(1-isobutyl-1H-pyrazol-4-yl)quinazolin-2-ylamino)-N-(2-(piperidin-1-yl)ethyl)benzenesulfonamide] | – | < 5 µM | < 5 µM | – | –
25 | CC(C)Cn1cc(-c2ccc3cnc(Nc4ccc(S(=O)(=O)NCCN5CCN(C)CC5)cc4)nc3c2)cn1 [Compound 712, 4-(7-(1-isobutyl-1H-pyrazol-4-yl)quinazolin-2-ylamino)-N-(2-(4-methylpiperazin-1-yl)ethyl)benzenesulfonamide] | – | < 5 µM | < 5 µM | – | –
26 | CC(C)Cn1cc(-c2ccc3cnc(Nc4ccc(S(=O)(=O)NCCN5CCCC5)cc4)nc3c2)cn1 [Compound 713, 4-(7-(1-isobutyl-1H-pyrazol-4-yl)quinazolin-2-ylamino)-N-(2-(pyrrolidin-1-yl)ethyl)benzenesulfonamide] | – | < 5 µM | < 5 µM | – | –
27 | C#Cc1cc2cnc(Nc3ccc(S(N)(=O)=O)cc3)nc2cc1OC1CCN(C(C)C)CC1 [Compound 714, 4-(6-ethynyl-7-(1-isopropylpiperidin-4-yloxy)quinazolin-2-ylamino)benzenesulfonamide] | – | < 5 µM | < 5 µM | – | –
28 | Cn1cc(-c2cc(Cl)cc3cnc(Nc4ccc(S(N)(=O)=O)cc4)nc23)cn1 [Compound 926, 4-(6-chloro-8-(1-methyl-1H-pyrazol-4-yl)quinazolin-2-ylamino)benzenesulfonamide] | – | – | – | < 5 µM | < 5 µM
29 | NS(=O)(=O)c1ccc(Nc2ncc3cc(Cl)cc(-c4ccc(NCCN5CCCC5)nc4)c3n2)cc1 [Compound 927, 4-(6-choro-8-(6-(2-(pyrrolidin-1-yl)ethylamino)pyridin-3-yl)quinazolin-2-ylamino)benzenesulfonamide] | – | – | – | < 5 µM | < 5 µM
30 | Nc1ncc(-c2cccc3cnc(Nc4ccc(S(N)(=O)=O)cc4)nc23)cc1C(F)(F)F [Compound 929, 4-(8-(6-amino-5-(trifluoromethyl)pyridin-3-yl)quinazolin-2-ylamino)benzenesulfonamide] | – | – | – | < 5 µM | < 5 µM
